# Data: US7189720B2 (H. Lundbeck A/S, priority 1999, dated 2007)
# Counter-ions that a name gives are not always drawn.
# What was measured:
# [1] = molecular target: T1, human Y5 receptor (Homo sapiens, UniProt Q15761); assay: Radioligand binding to membranes, cloned human Y5 receptor; settings: Table 6; read-out: Ki, nM hNPY-5
# T1 construct: expressed in transfected cells; host or cells: mouse fibroblast LM(tk-) cells, e.g. L-hY5-7 (ATCC CRL-11995)
# T1 sequence (Q15761 1-445): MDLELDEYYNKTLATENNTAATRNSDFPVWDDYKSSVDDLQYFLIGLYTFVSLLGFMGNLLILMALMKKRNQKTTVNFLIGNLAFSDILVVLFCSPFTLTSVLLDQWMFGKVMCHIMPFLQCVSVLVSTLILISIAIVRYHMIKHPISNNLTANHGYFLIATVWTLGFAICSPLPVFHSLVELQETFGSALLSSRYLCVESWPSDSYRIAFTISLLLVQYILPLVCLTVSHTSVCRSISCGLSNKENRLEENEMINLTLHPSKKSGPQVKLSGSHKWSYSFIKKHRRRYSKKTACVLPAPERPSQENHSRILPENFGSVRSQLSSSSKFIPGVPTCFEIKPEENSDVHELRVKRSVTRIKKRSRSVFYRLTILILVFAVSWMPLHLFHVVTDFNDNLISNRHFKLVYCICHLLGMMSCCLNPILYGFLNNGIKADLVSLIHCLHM
# [2] = molecular target: T2, human Y1 receptor (Homo sapiens, UniProt P25929); assay: Radioligand binding to membranes, cloned human Y1 receptor; settings: Table 6; hNPY-1 (one cell for Y1, Y2, Y4); read-out: Ki, nM hNPY-1,2,4
# T2 construct: expressed in transfected cells; host or cells: human embryonic kidney 293 cells, e.g. 293-hY1-5 (ATCC CRL-12121)
# T2 sequence (P25929 1-384): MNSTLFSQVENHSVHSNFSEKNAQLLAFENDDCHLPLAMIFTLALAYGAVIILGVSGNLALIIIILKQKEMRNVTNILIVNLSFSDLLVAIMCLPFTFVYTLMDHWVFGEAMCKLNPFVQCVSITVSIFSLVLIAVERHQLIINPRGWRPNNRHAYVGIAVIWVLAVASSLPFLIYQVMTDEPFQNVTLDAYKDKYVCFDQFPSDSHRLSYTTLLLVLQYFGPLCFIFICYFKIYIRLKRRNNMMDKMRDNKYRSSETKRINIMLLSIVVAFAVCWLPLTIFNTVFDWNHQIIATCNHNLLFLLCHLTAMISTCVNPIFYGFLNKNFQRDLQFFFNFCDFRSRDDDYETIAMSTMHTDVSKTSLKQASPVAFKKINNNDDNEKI
# Protocol: (§1) Binding of the compounds of the present invention to human Y1, Y2, Y4, and Y5 receptors was evaluated using stably transfected 293 or LM(tk-) cells as described above.
# (§2) Membranes were harvested from COS-7 cells 48 hours after transient transfection. Adherent cells were washed twice in ice-cold phosphate buffered saline (138 mM NaCl, 8.1 mM Na2HPO4, 2.5 mM KCl, 1.2 mM KH2PO4, 0.9 mM CaCl2, 0.5 mM MgCl2, pH 7.4) and lysed by sonication in ice-cold sonication buffer (20 mM Tris-HCl, 5 mM EDTA, pH 7.7). Large particles and debris were cleared by low speed centrifugation (200×g, 5 min, 4° C.). Membranes were collected from the supernatant fraction by centrifugation (32,000×g, 18 min, 4° C.), washed with ice-cold hypotonic buffer, and collected again by centrifugation (32,000×g, 18 min, 4° C.). The final membrane pellet was resuspended by sonication into a small volume of ice-cold binding buffer (˜1 ml for every 5 plates: 10 mM NaCl, 20 mM HEPES, 0.22 mM KH2PO4, 1.26 mM CaCl2, 0.81 mM MgSO4, pH 7.4). Protein concentration was measured by the Bradford method (Bradford, 1976) using Bio-Rad Reagent, with bovine serum albumin as a standard. Membranes were held on ice for up to one hour and used fresh, or flash-frozen and stored in liquid nitrogen.
# (§3) Membranes were prepared similarly from 293, LM(tk-), and NIH-3T3 cells.
# (§4) Membrane suspensions were diluted in binding buffer supplemented with 0.1% bovine serum albumin to yield an optimal membrane protein concentration so that ^125I-PYY (or alternative radioligand such as ^125I-NPY, ^125I-NYY3-36, or ^125I-[Leu^31Pro^34]PYY) bound by membranes in the assay was less than 10% of ^125I-PYY (or alternative radioligand) delivered to the sample (100,000 dpm/sample=0.08 nM for competition binding assays). ^125I-PYY (or alternative radioligand) and peptide competitors were also diluted to desired concentrations in supplemented binding buffer. Individual samples were then prepared in 96-well polypropylene microtiter plates by mixing ^125I-PYY (25 μL) (or alternative radioligand), competing peptides or supplemented binding buffer (25 μL), and finally, membrane suspensions (200 μL). Samples were incubated in a 30° C. water bath with constant shaking for 120 min. Incubations were terminated by filtration over Whatman GF/C filters (pre-coated with 1% polyethyleneimine and air-dried before use), followed by washing with 5 mL of ice-cold binding buffer. Filter-trapped membranes were impregnated with MeltiLex solid scintillant (Wallac, Turku, Finland) and counted for ^125I in a Wallac Beta-Plate Reader. Alternatively, incubations were carried out in GF/C filter plates (pre-coated with 1% polyethyleneimine and air-dried before use), followed by vacuum filtration and three washes of 300 μL of ice-cold binding buffer. 50 μL of UltimaGold (Packard) scintillant were added and counted for ^125I, in a Wallac MicroBeta Trilux. Non-specific binding was defined by 300 nM human NPY for all receptors except the Y4 subtypes; 100 nM human PP was used for the human Y4 and 100 nM rat PP for the rat Y4.
# [3] = molecular target: T3, human Y4 receptor (Homo sapiens, UniProt P50391); assay: Radioligand binding to membranes, cloned human Y4 receptor; settings: Table 6; hNPY-4 (one cell for Y1, Y2, Y4); read-out: Ki, nM hNPY-1,2,4
# T3 construct: expressed in transfected cells; host or cells: mouse fibroblast LM(tk-) cells, e.g. L-hY4-3 (ATCC CRL-11779)
# Protocol: as §1, §2, §3, §4
# [4] = molecular target: T4, human Y2 receptor (Homo sapiens, UniProt P49146); assay: Radioligand binding to membranes, cloned human Y2 receptor
# T4 sequence (P49146 1-381): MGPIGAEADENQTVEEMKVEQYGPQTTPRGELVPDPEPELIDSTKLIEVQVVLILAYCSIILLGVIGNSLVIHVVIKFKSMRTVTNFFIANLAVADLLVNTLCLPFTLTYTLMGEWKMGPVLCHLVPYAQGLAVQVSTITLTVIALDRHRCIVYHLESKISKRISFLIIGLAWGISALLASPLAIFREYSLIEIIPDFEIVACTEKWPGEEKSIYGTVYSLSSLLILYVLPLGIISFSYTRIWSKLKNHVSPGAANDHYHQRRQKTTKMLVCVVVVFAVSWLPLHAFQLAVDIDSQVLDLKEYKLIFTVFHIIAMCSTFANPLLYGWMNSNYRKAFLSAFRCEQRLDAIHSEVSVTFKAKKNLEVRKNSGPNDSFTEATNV
# Protocol: as §1, §2, §3, §4
# T3 sequence (P50391 whole entry): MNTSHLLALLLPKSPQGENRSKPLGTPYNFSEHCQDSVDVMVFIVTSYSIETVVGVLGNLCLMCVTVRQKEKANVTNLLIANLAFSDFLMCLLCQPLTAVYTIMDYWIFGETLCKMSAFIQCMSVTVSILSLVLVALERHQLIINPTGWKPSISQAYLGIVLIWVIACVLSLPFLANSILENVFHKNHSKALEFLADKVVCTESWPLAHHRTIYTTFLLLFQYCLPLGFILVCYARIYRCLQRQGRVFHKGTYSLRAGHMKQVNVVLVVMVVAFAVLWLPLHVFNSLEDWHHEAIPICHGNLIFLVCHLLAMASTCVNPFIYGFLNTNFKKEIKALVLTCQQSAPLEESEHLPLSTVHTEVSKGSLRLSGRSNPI
SMILES,melting point [°C],also measured
"O=S(=O)(NCCCCCNc1nc(-c2ccccn2)cs1)c1cccs1 (as salt: chloride) [Example 60, 4-(2-Pyridyl)-2-(5-(2-thienyl)sulfonylaminopentyl)-amino-thiazole hydrogen chloride]",75 to 77,
"O=S(=O)(NCCCCCNc1nc(-c2ccccn2)cs1)c1ccccc1F (as salt: chloride) [Example 61, 2-(5-(2-Fluorophenyl)sulfonylamino)pentylamino-4-(2-pyridyl)-thiazole hydrogen chloride]",60 to 63,
"COc1ccc(S(=O)(=O)NCCCCCNc2nc(-c3ccccn3)cs2)cc1 (as salt: chloride) [Example 62, 2-(5-(4-Methoxyphenyl)sulfonylamino)pentylamino-4-(2-pyridyl)thiazole hydrogen chloride]",54 to 57,
"O=S(=O)(NCCCCCNc1nc(-c2ccccn2)cs1)c1ccc(F)c(F)c1 (as salt: chloride) [Example 64, 2-(5-(3,4-Difluorophenyl)sulfonylamino)pentylamino-4-(2-pyridyl)thiazole hydrogen chloride]",65 to 68,
"COc1ccc(C)cc1S(=O)(=O)NCCCCCNc1nc(-c2ccccn2)cs1 (as salt: chloride) [Example 65, 2-(5-(2-Methoxy-5-methylphenyl)sulfonylamino)pentylamino-4-(2-pyridyl)thiazole hydrogen chloride]",155 to 156,
"O=S(=O)(Cc1ccccc1)NCCCCCNc1nc(-c2ccccn2)cs1 (as salt: chloride) [Example 66, 2-(5-(Benzylsulfonylamino)pentylamino-4-(2-pyridyl)thiazole hydrogen chloride]",62 to 64,
"CCS(=O)(=O)NCCCCCNc1nc(-c2ccccn2)cs1 (as salt: chloride) [Example 67, 2-(5-(Ethylsulfonylamino)pentyl)amino-4-(2-pyridyl)thiazole hydrogen chloride]",49 to 51,
"O=S(=O)(NCCCCCNc1nc(-c2ccccn2)cs1)C(F)(F)F (as salt: chloride) [Example 68, 2-(5-(Trifluoromethylsulfonylamino)pentyl)amino-4-(2-pyridyl)thiazole hydrogen chloride]",63 to 65,
"NS(=O)(=O)NCCCCCNc1nc(-c2ccccn2)cs1 (as salt: chloride) [Example 69, 2-(5-(Aminosulfonylamino)pentyl)amino-4-(2-pyridyl)thiazole hydrogen chloride]",68 to 70,
"O=S(=O)(NCCCCCNc1nc(-c2cccnc2)cs1)c1ccccc1F (as salt: chloride) [Example 70, 2-(5-(2-Fluorophenyl)sulfonylamino)pentylamino-4-(3-pyridyl)thiazole hydrogen chloride]",84 to 85,
"Cc1noc(C)c1S(=O)(=O)NCCCCCNc1nc(-c2cccnc2)cs1 (as salt: chloride) [Example 71, 2-(5-(3,5-Dimethylisoxazol-4-yl)sulfonylamino)pentylamino-4-(3-pyridyl)thiazole hydrogen chloride]",114 to 115,
"COc1ccc(C)cc1S(=O)(=O)NCCCCCNc1nc(-c2cccnc2)cs1 (as salt: chloride) [Example 72, 2-(5-(2-Methoxy-5-methyl)phenylsulfonylamino)pentylamino-4-(3-pyridyl)thiazole hydrogen chloride]",119 to 120,
"O=S(=O)(NCCCCCNc1nc(-c2ccncc2)cs1)c1ccccc1F (as salt: chloride) [Example 73, 2-(5-(2-Fluoro)phenylsulfonylamino)pentylamino-4-(4-pyridyl)thiazole hydrogen chloride]",97 to 98,
"Cc1noc(C)c1S(=O)(=O)NCCCCCNc1nc(-c2ccncc2)cs1 (as salt: chloride) [Example 74, 2-(5-(3,5-Dimethylisoxazol-4-yl)sulfonylamino)pentylamino-4-(4-pyridyl)thiazole hydrogen chloride]",108 to 109,
"COc1ccc(C)cc1S(=O)(=O)NCCCCCNc1nc(-c2ccncc2)cs1 (as salt: chloride) [Example 75, 2-(5-(2-Methoxy-5-methyl)phenylsulfonylamino)pentylamino-4-(4-pyridyl)thiazole hydrogen chloride]",116 to 117,
"COc1ccc(C)cc1S(=O)(=O)N[C@H]1CC[C@H](CNc2nc(-c3ccccn3)cs2)CC1 (as salt: chloride) [Example 83, trans-2-(4-(2-Methoxy-5-methylphenyl)sulfonylamino)-cyclohexylmethylamino-4-(2-pyridyl)thiazole dihydrogen chloride]",111 to 113,
"Cc1noc(C)c1S(=O)(=O)N[C@H]1CC[C@H](CNc2nc(-c3ccccn3)cs2)CC1 (as salt: chloride) [Example 85, trans-2-(4-(3,5-Dimethyl-4-isoxazolyl)sulfonylamino)-cyclohexylmethylamino-4-(2-pyridyl)thiazole dihydrogen chloride]",98 to 101,
"O=S(=O)(N[C@H]1CC[C@H](CNc2nc(-c3cccnc3)cs2)CC1)c1ccccc1F (as salt: chloride) [Example 86, trans-2-(4-(2-Fluorophenyl)sulfonylamino)cyclohexylmethyl-amino-4-(3-pyridyl)thiazole dihydrogen chloride]",141 to 142,
"COc1ccc(C)cc1S(=O)(=O)NCCCCCNc1nc2c(s1)CCSc1ccc(F)cc1-2 [Example 160, N1-{5-[(9-Fluoro-4,5-dihydrobenzo[2,3]thiepino[4,5-d][1,3]thiazol-2-yl)amino]pentyl}-2-methoxy-5-methyl-1-benzenesulfonamide]",,Ki [1]: 2.8 nM; Ki [2]: > 10000 nM; Ki [3]: > 10000 nM; Ki [4]: > 10 µM
"O=S(=O)(NCCCCCNc1nc2c(s1)CCSc1ccc(F)cc1-2)c1ccccc1F [Example 161, N1-{5-[(9-Fluoro-4,5-dihydrobenzo[2,3]thiepino[4,5-d][1,3]thiazol-2-yl)amino]pentyl}-2-fluoro-1-benzenesulfonamide]",,Ki [1]: 4.9 nM; Ki [2]: > 10000 nM; Ki [3]: > 10000 nM; Ki [4]: > 10 µM
"O=S(=O)(NCCCCCNc1nc2c(s1)CCSc1ccc(F)cc1-2)c1cccs1 [Example 162, N2-{5-[(9-Fluoro-4,5-dihydrobenzo[2,3]thiepino[4,5-d][1,3]thiazol-2-yl)amino]pentyl}-2-thiophenesulfonamide]",,Ki [1]: 4.8 nM; Ki [2]: > 10000 nM; Ki [3]: > 10000 nM; Ki [4]: > 10 µM
